The values below come from patent US9024041B2, “P38 MAP kinase inhibitors” (Respivert Ltd., priority 2010, dated 2015).

In series [1] the target is T1, p38 MAPKα isoform (MAPK14: Invitrogen) (Homo sapiens, UniProt Q16539).
T1 construct: purchased Invitrogen
The series can be described thus: p38 MAPKα enzyme inhibition assay (FRET, Z-LYTE, via MAPKAP-K2 activation). It counts as biochemical. Particulars: 2 hr pre-incubation, ATP 10.0 μM; read-out: Enzyme Inhibition IC50 p38α.

Series [2] addresses T2, Recombinant, phosphorylated p38 MAPKγ (MAPK12:Invitrogen) (Homo sapiens, UniProt P53778).
T2 construct: purchased Invitrogen
T2 sequence (P53778 1-367): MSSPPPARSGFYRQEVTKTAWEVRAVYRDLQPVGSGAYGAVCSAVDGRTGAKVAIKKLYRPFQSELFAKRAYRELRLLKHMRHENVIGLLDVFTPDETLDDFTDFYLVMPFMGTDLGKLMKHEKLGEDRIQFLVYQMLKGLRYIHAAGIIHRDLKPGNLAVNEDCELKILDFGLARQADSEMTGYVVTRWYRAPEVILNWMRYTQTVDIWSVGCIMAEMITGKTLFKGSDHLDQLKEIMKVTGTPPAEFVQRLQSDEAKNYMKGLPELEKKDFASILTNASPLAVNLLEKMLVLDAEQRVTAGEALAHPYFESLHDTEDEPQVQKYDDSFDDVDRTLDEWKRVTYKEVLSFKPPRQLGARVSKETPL
Put plainly: p38 MAPKγ enzyme inhibition assay (FRET, Z-LYTE). It counts as biochemical. The following applies: 2 hr pre-incubation, ATP 100 μM; read-out: Enzyme Inhibition IC50 p38γ.

For series [3], the system named is LPS-induced TNFα release in THP-1 cells. The series can be described thus: LPS-induced TNFα release in THP-1 cells. It is filed as cell-based. The following applies: Homo sapiens, 3 μg/mL LPS, 4 hr. The essentials: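 Human monocytic cells were stimulated with 3 μg/mL E. coli LPS for 4 hr. Supernatant TNFα was measured by sandwich ELISA. Inhibition was taken relative to vehicle control, and IC50 derived from the concentration-response curve.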

The subject of series [4] is LPS-induced TNFα release in d-U937 cells. The series can be described thus: LPS-induced TNFα release in d-U937 cells. It counts as cell-based. Particulars: Homo sapiens, dU937, 4 h; read-out: LPS/TNFα REC50 d-U937. The essentials:
(§1)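 U937 cells differentiated with PMA (100 ng/mL, 48–72 hr), pre-incubated with compound 2 hr, then stimulated with 0.1 μg/mL E. coli O111:B4 LPS for 4 hr. Supernatant TNFα and IL-8 measured by sandwich ELISA; REC50 (TNFα) and IC50 (IL-8 inhibition vs vehicle) taken from concentration-response curves.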

The subject of series [5] is LPS-induced IL-8 release in d-U937 cells. Put plainly: LPS-induced IL-8 release in d-U937 cells. It counts as cell-based. Particulars: Homo sapiens, dU937, 0.1 μg/mL LPS, 4 hr. The essentials:
as §1

Series [6] concerns Poly I:C-induced ICAM-1 expression in BEAS2B cells. Put plainly: Poly I:C-induced ICAM-1 induction in BEAS2B cells. It is filed as cell-based. Particulars: Homo sapiens, BEAS-2B, poly I:C 1 μg/mL, 18 hr, read-out: PolyI:C/ICAM1 IC50 BEAS2B. The essentials: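 Human bronchial epithelial BEAS2B cells were pre-incubated with compound for 2 h, then transfected with poly I:C at 1 μg/mL. Surface ICAM-1 was measured 18 h later by cell-based ELISA (OD450–655), normalised to crystal-violet cell number (OD595). IC50 was taken from the concentration–response curve against vehicle.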

In series [7] the test system is Differentiated U937 cells. The series can be described thus: MTT assay: cell viability on exposure to test compounds. It counts as cell-based, human. The following applies: percentage loss of cell viability vs vehicle, 1 μg/mL; for MTT Assay (Viability) 4 h d-U937: 5% FCS; for MTT Assay (Viability) 24 h d-U937: 10% FCS. The essentials: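 Differentiated U937 cells were pre-incubated with compound for either 4 h in 5% FCS or 24 h in 10% FCS, then given MTT for 1 h. Formazan was dissolved in DMSO and read at 550 nm. Viability loss is expressed as % versus 0.5% DMSO vehicle, so an apparent gain appears as a negative value.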

T1 sequence (Q16539 whole entry, canonical isoform): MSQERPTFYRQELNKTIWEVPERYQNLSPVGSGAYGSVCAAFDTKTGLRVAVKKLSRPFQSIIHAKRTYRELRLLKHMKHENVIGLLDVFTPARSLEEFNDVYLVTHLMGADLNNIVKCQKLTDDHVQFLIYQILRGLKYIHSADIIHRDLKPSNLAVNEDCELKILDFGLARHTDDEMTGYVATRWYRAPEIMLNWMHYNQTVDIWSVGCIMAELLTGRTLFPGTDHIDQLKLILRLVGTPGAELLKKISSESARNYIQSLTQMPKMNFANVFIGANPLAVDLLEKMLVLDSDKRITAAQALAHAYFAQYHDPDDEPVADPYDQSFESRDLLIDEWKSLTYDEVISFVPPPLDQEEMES

In the case of `COCC(=O)Nc1cc(Oc2ccc(NC(=O)Nc3cc(C(C)(C)C)nn3-c3ccc(O)c(Cl)c3)c3ccccc23)ccn1` [Example 52, N-(4-(4-(3-(3-tert-butyl-1-(3-chloro-4-hydroxyphenyl)-1H-pyrazol-5-yl)ureido)naphthalen-1-yloxy)pyridin-2-yl)-2-methoxyacetamide], the IC50 in series [1] is 1.9 nM; in series [2], 332 nM; in series [3], 8.2 nM; in series [5], greater than 1630 nM; in series [6] it was 5.7 nM. For the same compound, the EC50 in series [4] was found to be 16.3 nM. The “MTT Assay (Viability) 4 h d-U937” value in series [7] was determined as 8.5%. In series [7], the “MTT Assay (Viability) 24 h d-U937” value was −48.8%.
Take `COCC(=O)Nc1cc(Oc2ccc(NC(=O)Nc3cc(C(C)(C)C)nn3-c3cc(C)cs3)c3ccccc23)ccn1` [Example 18, N-(4-(4-(3-(3-tert-Butyl-1-(4-methylthiophen-2-yl)-1H-pyrazol-5-yl)ureido)naphthalen-1-yloxy)pyridin-2-yl)-2-methoxyacetamide]: the IC50 in series [1] is 8.8 nM; in series [2], 95.5 nM; in series [3] it was 1.2 nM; in series [5] it was 40 nM; in series [6] it was 3.7 nM. The EC50 in series [4] turned out to be 0.7 nM. The “MTT Assay (Viability) 4 h d-U937” value in series [7] amounted to 8.2%. Also, the “MTT Assay (Viability) 24 h d-U937” value in series [7] is −2.9%.
In the case of `COCC(=O)Nc1cc(Oc2ccc(NC(=O)Nc3cc(C(C)(C)C)nn3-c3cccc(O)c3)c3ccccc23)ccn1` [Example 32, N-(4-(4-(3-(3-tert-butyl-1-(3-hydroxyphenyl)-1H-pyrazol-5-yl)ureido)naphthalen-1-yloxy)pyridin-2-yl)-2-methoxyacetamide], the IC50 is 7.7 nM in series [1]; 78.4 nM in series [2]; 0.7 nM in series [3]; 0.7 nM in series [5]; 5.5 nM in series [6]. Also, in series [4], the EC50 stood at 0.1 nM. Besides, in series [7], the “MTT Assay (Viability) 4 h d-U937” value was found to be 5.8%. In addition, in series [7], the “MTT Assay (Viability) 24 h d-U937” value came to 42.2%.
Regarding `CNC(=O)Nc1cc(Oc2ccc(NC(=O)Nc3cc(C(C)(C)C)nn3-c3ccc(OC)nc3)c(C)c2C)ccn1` [Example 39, 1-(4-(4-(3-(3-tert-butyl-1-(6-methoxypyridin-3-yl)-1H-pyrazol-5-yl)ureido)-2,3-dimethylphenoxy)pyridin-2-yl)-3-methylurea], the IC50 in series [1] amounted to 30.7 nM; in series [2] it was 81.8 nM; in series [3], 1.8 nM; in series [5], 23.2 nM; in series [6], 2.9 nM. Further, the EC50 in series [4] came to 1.8 nM. Besides, the “MTT Assay (Viability) 4 h d-U937” value in series [7] is recorded as −12.6%. In series [7], the “MTT Assay (Viability) 24 h d-U937” value is recorded as 21.6%.
For `COCC(=O)Nc1cc(Oc2ccc(NC(=O)Nc3cc(C45CC6CC(CC(C6)C4)C5)nn3-c3ccc(C)cc3)c3ccccc23)ccn1` [Example 27, N-(4-(4-(3-(3-(adamantan-1-yl)-1-p-tolyl-1H-pyrazol-5-yl)ureido)naphthalen-1-yloxy)pyridin-2-yl)-2-methoxyacetamide], the IC50 in series [1] came out at 74.3 nM; in series [2] it was 1970 nM; in series [3], 15.2 nM; in series [5] it was 3520 nM; in series [6], 284 nM. For the same compound, in series [4], the EC50 was 18.8 nM. Also, the “MTT Assay (Viability) 4 h d-U937” value in series [7] is on record as −4.6%. For the same compound, in series [7], the “MTT Assay (Viability) 24 h d-U937” value is recorded as −23.9%.
`CNC(=O)Nc1cc(Oc2ccc(NC(=O)Nc3cc(C(C)(C)C)nn3-c3ccc(O)cc3)c3ccccc23)ccn1` [Example 33, 1-(3-tert-butyl-1-(4-hydroxyphenyl)-1H-pyrazol-5-yl)-3-(4-(2-(3-methylureido)pyridin-4-yloxy)naphthalen-1-yl)urea]: the IC50 stood at 5.3 nM in series [1]; 180 nM in series [2]; 1 nM in series [3]; 7 nM in series [5]; 4.4 nM in series [6]. Further, the EC50 in series [4] was found to be 0.7 nM. Further, in series [7], the “MTT Assay (Viability) 4 h d-U937” value is listed as −1.3%. Also, in series [7], the “MTT Assay (Viability) 24 h d-U937” value is on record as −24.1%.
Turning to `COCC(=O)Nc1cc(Oc2ccc(NC(=O)Nc3cc(-c4ccccc4)nn3-c3ccccc3)c3ccccc23)ccn1` [Example 19, N-(4-((4-(3-(1,3-Diphenyl-1H-pyrazol-5-yl)ureido)naphthalen-1-yl)oxy)pyridin-2-yl)-2-methoxyacetamide], the IC50 is 0.4 nM in series [1]; 261 nM in series [2]; 1.8 nM in series [3]; 24.5 nM in series [5]; 369 nM in series [6]. In addition, in series [4], the EC50 is 8.1 nM. In addition, the “MTT Assay (Viability) 4 h d-U937” value in series [7] is −1.7%. Besides, in series [7], the “MTT Assay (Viability) 24 h d-U937” value is reported as −11.7%.
`COc1ccc(-n2nc(C(C)(C)C)cc2NC(=O)Nc2ccc(Oc3ccnc(NC(=O)NC4CC4)c3)c3ccccc23)cc1` [Example 6, 1-(3-(tert-Butyl)-1-(4-methoxyphenyl)-1H-pyrazol-5-yl)-3-(4-(2-(3-cyclopropylureido)pyridin-4-yloxy)naphthalen-1-yl)urea]: the IC50 is 17.8 nM in series [1]; 51.3 nM in series [2]; 1.2 nM in series [3]; 2.6 nM in series [5]; 1 nM in series [6]. Moreover, the EC50 in series [4] came to 19.4 nM. In addition, the “MTT Assay (Viability) 4 h d-U937” value in series [7] was −10.7%. Also, in series [7], the “MTT Assay (Viability) 24 h d-U937” value is given as −50.1%.
For `COCC(=O)Nc1cc(Oc2ccc(NC(=O)Nc3cc(C(F)(F)C(F)(F)F)nn3-c3ccc(C)cc3)c3ccccc23)ccn1` [Example 30, 2-methoxy-N-(4-(4-(3-(3-(perfluoroethyl)-1-p-tolyl-1H-pyrazol-5-yl)ureido)naphthalen-1-yloxy)pyridin-2-yl)acetamide], the IC50 in series [1] was 10.1 nM; in series [2], greater than 15600 nM; in series [3], 10.2 nM; in series [5], 1910 nM; in series [6], 1490 nM. For the same compound, in series [4], the EC50 came out at 108 nM. For the same compound, the “MTT Assay (Viability) 4 h d-U937” value in series [7] is −6.3%. For the same compound, in series [7], the “MTT Assay (Viability) 24 h d-U937” value was −46.1%.
Take `COCC(=O)Nc1cc(Oc2ccc(NC(=O)Nc3cc(C(C)(C)C)nn3-c3ccc(Cl)c(Cl)c3)c3ccccc23)ccn1` [Example 55, N-(4-(4-(3-(3-tert-butyl-1-(3,4-dichlorophenyl)-1H-pyrazol-5-yl)ureido)naphthalen-1-yloxy)pyridin-2-yl)-2-methoxyacetamide]: the IC50 in series [1] is 14.9 nM; in series [2] it was 102 nM; in series [3] it was 4.3 nM; in series [5] it was 5.5 nM; in series [6], 14.7 nM. The EC50 in series [4] turned out to be 0.8 nM. Moreover, in series [7], the “MTT Assay (Viability) 4 h d-U937” value was −16.1%. Moreover, the “MTT Assay (Viability) 24 h d-U937” value in series [7] is recorded as −71.1%.
For `COCC(=O)Nc1cc(Oc2ccc(NC(=O)Nc3cc(C(C)(C)C)nn3-c3ccc(C(=O)OC)cc3)c3ccccc23)ccn1` [Example 43, methyl 4-(3-tert-butyl-5-(3-(4-((2-(2-methoxyacetamido)pyridin-4-yl)oxy)naphthalen-1-yl)ureido)-1H-pyrazol-1-yl)benzoate], the IC50 in series [1] was 8.3 nM; in series [2] it was 192 nM; in series [3], 2 nM; in series [5], 8.9 nM; in series [6], 1.7 nM. The EC50 in series [4] was determined as 1.6 nM. Besides, in series [7], the “MTT Assay (Viability) 4 h d-U937” value is given as −12.8%. Further, in series [7], the “MTT Assay (Viability) 24 h d-U937” value is given as 0.1%.
